One test concerns the target T1, Ephrin type-B receptor 3 (Homo sapiens, UniProt P54753).
T1 sequence (P54753 whole entry): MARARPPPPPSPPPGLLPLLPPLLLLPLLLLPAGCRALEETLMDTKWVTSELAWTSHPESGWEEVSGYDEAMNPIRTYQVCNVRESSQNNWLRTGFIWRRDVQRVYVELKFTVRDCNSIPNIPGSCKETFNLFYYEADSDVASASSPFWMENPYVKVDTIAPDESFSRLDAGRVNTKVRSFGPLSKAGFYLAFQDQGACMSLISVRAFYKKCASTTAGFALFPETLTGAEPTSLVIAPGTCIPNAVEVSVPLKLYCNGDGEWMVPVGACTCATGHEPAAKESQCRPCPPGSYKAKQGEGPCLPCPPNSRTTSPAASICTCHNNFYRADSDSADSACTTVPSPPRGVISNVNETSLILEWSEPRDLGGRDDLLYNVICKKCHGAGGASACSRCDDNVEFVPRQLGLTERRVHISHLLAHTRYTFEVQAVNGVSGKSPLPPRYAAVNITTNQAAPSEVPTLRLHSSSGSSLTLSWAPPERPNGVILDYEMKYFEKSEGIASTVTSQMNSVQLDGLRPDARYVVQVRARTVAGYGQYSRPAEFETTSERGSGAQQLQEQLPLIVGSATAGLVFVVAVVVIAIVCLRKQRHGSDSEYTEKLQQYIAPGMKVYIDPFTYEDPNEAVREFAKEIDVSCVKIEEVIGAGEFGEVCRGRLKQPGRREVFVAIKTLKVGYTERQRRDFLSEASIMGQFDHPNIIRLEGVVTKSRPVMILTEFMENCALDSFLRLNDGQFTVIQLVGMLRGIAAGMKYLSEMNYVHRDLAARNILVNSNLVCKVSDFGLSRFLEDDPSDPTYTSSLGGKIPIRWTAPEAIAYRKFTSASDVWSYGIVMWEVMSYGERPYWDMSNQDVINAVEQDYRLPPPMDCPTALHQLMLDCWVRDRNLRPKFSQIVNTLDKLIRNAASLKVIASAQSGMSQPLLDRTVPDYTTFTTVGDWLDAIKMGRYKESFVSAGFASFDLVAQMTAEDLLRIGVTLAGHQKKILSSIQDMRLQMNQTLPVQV

The target in test [1] is T2, Uncharacterized protein FLJ45252 (Homo sapiens, UniProt Q6ZSR9).
T2 sequence (Q6ZSR9 whole entry): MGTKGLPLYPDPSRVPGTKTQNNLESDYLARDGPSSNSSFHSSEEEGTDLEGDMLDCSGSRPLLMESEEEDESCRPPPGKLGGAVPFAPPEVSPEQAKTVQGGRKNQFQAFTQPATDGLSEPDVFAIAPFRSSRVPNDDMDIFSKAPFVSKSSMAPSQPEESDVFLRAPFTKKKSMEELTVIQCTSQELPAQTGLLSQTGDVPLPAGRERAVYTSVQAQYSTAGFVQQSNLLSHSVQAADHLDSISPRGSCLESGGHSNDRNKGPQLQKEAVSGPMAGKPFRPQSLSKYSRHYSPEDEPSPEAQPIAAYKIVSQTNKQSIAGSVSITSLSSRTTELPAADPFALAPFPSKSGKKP
The conditions noted are these: read-out: Kd apparent; k-562, colo 205, sk-n-be(2) and mv-4-11.

Test [2] concerns the target T3, Serine/threonine-protein kinase LATS1 (Homo sapiens, UniProt O95835).
T3 sequence (O95835 whole entry): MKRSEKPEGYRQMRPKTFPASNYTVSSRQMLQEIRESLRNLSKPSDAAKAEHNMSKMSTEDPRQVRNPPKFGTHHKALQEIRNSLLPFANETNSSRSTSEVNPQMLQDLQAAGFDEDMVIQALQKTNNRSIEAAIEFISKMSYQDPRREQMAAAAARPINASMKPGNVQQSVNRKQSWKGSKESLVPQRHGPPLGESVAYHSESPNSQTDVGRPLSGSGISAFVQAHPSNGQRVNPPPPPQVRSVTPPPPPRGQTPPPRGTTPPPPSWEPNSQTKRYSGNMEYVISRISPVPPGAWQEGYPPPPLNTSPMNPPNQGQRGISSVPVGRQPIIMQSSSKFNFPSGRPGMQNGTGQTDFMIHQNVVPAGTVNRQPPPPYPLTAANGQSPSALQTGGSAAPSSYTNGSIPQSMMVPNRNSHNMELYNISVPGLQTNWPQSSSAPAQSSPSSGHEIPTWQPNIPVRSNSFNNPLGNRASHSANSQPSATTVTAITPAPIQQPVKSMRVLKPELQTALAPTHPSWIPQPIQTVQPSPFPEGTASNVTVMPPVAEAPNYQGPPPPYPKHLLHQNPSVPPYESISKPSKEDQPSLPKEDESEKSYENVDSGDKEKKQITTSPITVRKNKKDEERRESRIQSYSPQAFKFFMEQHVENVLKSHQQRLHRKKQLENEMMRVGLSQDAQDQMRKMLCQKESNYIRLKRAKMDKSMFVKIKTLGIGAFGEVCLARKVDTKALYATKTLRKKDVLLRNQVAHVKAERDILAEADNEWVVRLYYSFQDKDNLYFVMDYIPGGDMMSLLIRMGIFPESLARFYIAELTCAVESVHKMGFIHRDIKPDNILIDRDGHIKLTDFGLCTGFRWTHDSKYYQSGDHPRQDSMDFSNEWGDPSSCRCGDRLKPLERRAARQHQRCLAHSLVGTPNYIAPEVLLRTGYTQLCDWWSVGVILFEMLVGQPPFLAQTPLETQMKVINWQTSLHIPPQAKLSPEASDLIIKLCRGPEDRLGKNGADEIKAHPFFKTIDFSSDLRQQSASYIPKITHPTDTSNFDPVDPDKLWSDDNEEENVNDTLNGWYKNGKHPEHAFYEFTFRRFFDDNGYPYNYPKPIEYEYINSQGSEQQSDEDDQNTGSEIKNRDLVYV

The target of test [3] is Serine/threonine-protein kinase PAK 2 (Homo sapiens, UniProt Q13177).
Serine/threonine-protein kinase PAK 2, sequence (Q13177 whole entry): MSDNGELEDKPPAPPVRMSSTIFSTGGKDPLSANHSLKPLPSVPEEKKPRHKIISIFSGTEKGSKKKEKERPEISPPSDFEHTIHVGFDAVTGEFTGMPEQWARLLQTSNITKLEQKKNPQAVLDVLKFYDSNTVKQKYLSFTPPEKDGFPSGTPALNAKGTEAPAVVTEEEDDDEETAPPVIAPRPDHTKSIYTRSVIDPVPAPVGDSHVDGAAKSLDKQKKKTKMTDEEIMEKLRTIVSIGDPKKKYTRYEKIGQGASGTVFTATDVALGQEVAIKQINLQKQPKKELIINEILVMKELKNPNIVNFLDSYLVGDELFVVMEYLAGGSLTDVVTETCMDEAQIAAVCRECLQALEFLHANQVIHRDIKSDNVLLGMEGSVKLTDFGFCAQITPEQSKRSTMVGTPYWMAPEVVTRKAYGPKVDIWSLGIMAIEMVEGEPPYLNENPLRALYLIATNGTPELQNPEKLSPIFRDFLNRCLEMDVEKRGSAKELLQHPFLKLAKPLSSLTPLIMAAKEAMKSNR
Test [4] addresses Chromodomain-helicase-DNA-binding protein 4 (Homo sapiens, UniProt Q14839).
In test [5] the target is Macrophage-stimulating protein receptor (Homo sapiens, UniProt Q04912).
Test [6] concerns the target Serine/threonine-protein kinase/endoribonuclease IRE1 (Homo sapiens, UniProt O75460).
The target in test [7] is Mitogen-activated protein kinase kinase kinase kinase 4 (Homo sapiens, UniProt O95819).
Mitogen-activated protein kinase kinase kinase kinase 4, sequence (O95819 whole entry): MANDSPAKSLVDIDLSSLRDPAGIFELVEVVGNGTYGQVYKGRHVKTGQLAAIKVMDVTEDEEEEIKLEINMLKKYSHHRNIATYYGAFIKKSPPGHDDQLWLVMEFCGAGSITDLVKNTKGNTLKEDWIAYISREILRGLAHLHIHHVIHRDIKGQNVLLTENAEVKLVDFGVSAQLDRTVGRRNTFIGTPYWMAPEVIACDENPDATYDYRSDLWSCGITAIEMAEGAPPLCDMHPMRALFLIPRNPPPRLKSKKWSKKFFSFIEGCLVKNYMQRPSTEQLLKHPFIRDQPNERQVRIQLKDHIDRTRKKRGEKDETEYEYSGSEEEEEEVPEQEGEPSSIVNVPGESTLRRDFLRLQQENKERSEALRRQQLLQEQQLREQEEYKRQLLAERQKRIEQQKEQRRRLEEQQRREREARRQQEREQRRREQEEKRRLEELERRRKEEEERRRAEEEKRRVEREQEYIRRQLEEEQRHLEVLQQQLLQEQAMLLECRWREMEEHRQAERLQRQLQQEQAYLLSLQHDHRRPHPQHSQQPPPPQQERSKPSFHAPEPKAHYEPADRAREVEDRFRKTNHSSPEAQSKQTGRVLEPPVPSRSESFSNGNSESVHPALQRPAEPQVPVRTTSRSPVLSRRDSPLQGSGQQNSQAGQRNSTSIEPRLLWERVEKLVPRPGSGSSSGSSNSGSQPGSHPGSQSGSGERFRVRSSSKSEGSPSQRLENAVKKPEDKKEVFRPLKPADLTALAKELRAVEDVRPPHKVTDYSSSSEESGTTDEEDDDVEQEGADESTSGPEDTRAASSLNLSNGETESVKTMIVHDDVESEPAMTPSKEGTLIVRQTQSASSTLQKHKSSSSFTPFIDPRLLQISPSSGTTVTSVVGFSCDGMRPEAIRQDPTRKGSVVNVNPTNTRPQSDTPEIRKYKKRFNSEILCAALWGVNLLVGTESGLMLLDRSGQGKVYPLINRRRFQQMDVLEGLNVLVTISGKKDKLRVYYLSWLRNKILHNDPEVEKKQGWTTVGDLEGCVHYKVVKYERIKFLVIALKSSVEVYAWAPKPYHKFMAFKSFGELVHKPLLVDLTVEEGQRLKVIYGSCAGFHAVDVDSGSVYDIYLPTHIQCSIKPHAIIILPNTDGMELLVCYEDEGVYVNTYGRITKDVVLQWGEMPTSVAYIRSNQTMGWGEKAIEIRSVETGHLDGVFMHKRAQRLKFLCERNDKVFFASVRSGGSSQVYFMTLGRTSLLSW

pKd: −log10 of the molar value. Calls of active or inactive are those of the source. For most assays here, no stated cut-off is given here; in the data, actives have a measured Kd and inactives only a lower limit. A value given as a limit tells only on which side of the number the result lay.

Chromodomain-helicase-DNA-binding protein 4, sequence (Q14839 whole entry): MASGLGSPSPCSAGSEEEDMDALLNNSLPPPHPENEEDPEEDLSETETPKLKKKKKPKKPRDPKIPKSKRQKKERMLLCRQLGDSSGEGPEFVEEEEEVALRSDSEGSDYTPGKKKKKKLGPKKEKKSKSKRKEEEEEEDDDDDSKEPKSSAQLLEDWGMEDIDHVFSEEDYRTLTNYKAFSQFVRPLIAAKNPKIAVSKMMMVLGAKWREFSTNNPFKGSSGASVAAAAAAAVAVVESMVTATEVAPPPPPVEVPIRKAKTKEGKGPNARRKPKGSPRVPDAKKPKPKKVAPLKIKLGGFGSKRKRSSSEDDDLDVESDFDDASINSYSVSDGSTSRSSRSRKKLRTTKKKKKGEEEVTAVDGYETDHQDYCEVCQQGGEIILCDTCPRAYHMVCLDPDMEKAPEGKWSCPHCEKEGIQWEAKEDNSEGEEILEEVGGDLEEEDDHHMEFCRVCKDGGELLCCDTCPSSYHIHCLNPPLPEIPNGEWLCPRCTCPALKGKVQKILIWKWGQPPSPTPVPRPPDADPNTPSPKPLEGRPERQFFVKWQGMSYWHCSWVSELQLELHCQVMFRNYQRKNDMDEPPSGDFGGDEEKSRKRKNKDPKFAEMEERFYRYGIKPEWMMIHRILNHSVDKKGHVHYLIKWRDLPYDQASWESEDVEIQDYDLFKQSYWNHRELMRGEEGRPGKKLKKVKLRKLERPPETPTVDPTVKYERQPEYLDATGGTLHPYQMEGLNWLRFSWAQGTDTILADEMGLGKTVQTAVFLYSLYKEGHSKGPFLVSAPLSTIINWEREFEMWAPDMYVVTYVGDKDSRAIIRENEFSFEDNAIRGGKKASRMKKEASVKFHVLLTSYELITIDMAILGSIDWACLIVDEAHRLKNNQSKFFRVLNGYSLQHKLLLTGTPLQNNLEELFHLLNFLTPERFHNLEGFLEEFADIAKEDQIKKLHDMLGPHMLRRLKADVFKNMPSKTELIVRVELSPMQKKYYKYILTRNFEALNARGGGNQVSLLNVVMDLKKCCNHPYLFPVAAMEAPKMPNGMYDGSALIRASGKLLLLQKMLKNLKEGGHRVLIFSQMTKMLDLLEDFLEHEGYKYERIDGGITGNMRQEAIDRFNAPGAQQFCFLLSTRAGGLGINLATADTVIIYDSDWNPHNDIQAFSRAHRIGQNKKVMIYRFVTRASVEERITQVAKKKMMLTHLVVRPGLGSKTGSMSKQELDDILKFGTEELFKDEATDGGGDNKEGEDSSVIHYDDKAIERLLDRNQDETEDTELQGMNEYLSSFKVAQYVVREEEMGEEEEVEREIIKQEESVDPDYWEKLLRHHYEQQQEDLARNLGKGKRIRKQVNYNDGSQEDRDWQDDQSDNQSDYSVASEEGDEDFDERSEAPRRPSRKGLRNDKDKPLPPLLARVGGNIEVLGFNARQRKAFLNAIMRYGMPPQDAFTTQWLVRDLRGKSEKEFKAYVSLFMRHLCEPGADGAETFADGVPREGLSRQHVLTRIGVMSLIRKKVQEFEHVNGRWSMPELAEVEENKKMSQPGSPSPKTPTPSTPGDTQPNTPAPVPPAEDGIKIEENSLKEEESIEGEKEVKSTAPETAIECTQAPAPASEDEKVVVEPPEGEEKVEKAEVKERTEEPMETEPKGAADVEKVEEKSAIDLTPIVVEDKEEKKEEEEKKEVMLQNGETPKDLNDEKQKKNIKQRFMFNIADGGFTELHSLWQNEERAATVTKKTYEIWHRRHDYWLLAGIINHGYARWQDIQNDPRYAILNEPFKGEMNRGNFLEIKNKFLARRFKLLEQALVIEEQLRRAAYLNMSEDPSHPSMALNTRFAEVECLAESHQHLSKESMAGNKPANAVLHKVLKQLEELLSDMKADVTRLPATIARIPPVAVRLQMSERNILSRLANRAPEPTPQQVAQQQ
Serine/threonine-protein kinase/endoribonuclease IRE1, sequence (O75460 whole entry): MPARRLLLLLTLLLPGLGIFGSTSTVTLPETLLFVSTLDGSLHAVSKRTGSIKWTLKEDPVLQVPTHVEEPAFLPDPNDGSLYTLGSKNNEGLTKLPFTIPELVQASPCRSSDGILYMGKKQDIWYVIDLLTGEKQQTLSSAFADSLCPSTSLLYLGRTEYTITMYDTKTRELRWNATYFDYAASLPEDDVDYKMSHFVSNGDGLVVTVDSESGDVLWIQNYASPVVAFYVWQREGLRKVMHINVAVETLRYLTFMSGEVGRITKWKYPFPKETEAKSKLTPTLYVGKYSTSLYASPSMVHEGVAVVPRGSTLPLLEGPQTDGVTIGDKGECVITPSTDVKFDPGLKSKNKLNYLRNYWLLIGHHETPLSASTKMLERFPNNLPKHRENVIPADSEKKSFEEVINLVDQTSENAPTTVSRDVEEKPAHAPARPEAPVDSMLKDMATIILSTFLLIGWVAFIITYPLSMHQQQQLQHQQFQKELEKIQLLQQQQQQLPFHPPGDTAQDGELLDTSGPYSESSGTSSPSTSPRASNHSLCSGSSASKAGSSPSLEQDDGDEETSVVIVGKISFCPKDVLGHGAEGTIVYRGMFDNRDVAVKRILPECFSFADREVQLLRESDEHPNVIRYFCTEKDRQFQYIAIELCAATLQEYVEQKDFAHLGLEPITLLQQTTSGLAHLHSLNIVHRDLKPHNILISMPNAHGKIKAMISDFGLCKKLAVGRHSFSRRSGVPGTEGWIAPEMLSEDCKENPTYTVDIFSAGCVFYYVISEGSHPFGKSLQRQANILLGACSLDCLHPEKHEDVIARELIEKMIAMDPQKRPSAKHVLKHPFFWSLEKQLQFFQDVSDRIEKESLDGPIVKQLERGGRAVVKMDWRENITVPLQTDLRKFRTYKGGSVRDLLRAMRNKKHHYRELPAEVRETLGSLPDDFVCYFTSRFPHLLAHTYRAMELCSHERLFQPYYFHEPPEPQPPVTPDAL

Turning to `O=C(Nc1cccc(Cl)c1)Nc1ncc(CCNc2ncnc3ccsc23)s1` [SNS-314], the Kd (at Ephrin type-B receptor 3; in test [1]; in test [2]; in test [3]; in test [4]) was > 30 µM (inactive) in each case.
Turning to `Cc1cn(-c2cc(NC(=O)c3ccc(C)c(Nc4nccc(-c5cccnc5)n4)c3)cc(C(F)(F)F)c2)cn1` [NILOTINIB], the Kd in test [1] and in test [4] was > 30 µM (inactive) each time.
Turning to `Cc1c(F)cc(C(=O)NC2CC2)cc1-c1ccc(C(=O)NCC(C)(C)C)cn1` [LOSMAPIMOD], the Kd (in test [5]; in test [6]; at Ephrin type-B receptor 3; in test [1]; in test [2]; in test [7]) was > 30 µM (inactive) throughout. Also, the Kd in test [4] is > 30 µM (inactive).
Regarding `Nc1nc(N)c2nc(-c3cccc(O)c3)c(-c3cccc(O)c3)nc2n1` [TG100-115], the Kd is 3.01 µM (active) in test [1] and > 30 µM (inactive) in test [4].
For `CN1CCN(c2ccc3nc(-c4c(N)c5c(F)cccc5[nH]c4=O)[nH]c3c2)CC1` [DOVITINIB] the same measures were 0.104 µM (active) and > 30 µM (inactive).
In the case of `Cc1cc(Nc2cc(N3CCN(C)CC3)nc(/C=C/c3ccccc3)n2)n[nH]1` [ENMD-2076], the Kd (in test [6]; on Ephrin type-B receptor 3; in test [1]; in test [2]; in test [3]; in test [4]) was > 30 µM (inactive) throughout.
In the case of `COc1cc(N2CCC(N3CCN(C)CC3)CC2)ccc1Nc1ncnc(Nc2ccccc2S(=O)(=O)C(C)C)n1` [ASP-3026], the Kd in test [5] is > 30 µM (inactive); in test [6], 12.2 µM (active); on Ephrin type-B receptor 3, 5.5 µM (active); in test [1], 0.822 µM (active); in test [2] it was > 30 µM (inactive); in test [7], > 30 µM (inactive). Further, the Kd in test [4] is > 30 µM (inactive).
As to `Cc1nc(N)sc1-c1ccnc(Nc2ccc(N3CCOCC3)cc2)n1` [CYC-116], the Kd in test [5] is 0.575 µM (active); in test [6], > 30 µM (inactive); at Ephrin type-B receptor 3, > 30 µM (inactive); in test [1], 0.007 µM (active); in test [2] it was 0.066 µM (active); in test [3], > 30 µM (inactive). Further, in test [4], the Kd was > 30 µM (inactive).
With `C[C@@H](Nc1cc(F)cc(F)c1)c1cc(C(=O)N(C)C)cc2c(=O)cc(N3CCOCC3)oc12` [AZD-8186], the Kd (in test [5]; in test [6]; on Ephrin type-B receptor 3; in test [1]; in test [2]; in test [7]) was > 30 µM (inactive) throughout.
In the case of `CCn1c(-c2nonc2N)nc2c(C#CC(C)(C)O)ncc(OC[C@H]3CCCNC3)c21` [GSK-690693], the Kd in test [1] and in test [4] was > 30 µM (inactive) in each case.
Turning to `CCc1cnn2c(NCc3ccc[n+]([O-])c3)cc(N3CCCC[C@H]3CCO)nc12` [DINACICLIB], the Kd (in test [6]; at Ephrin type-B receptor 3; in test [2]; in test [3]) was > 30 µM (inactive) each time. For the same compound, the pKd in test [4] is 8.52.
With `CNC(=O)c1cc(Oc2ccc(NC(=O)Nc3ccc(Cl)c(C(F)(F)F)c3)c(F)c2)ccn1` [REGORAFENIB], the Kd (in test [5]; in test [6]; on Ephrin type-B receptor 3; in test [2]; in test [3]; in test [7]) was > 30 µM (inactive) each time. The Kd in test [4] is > 30 µM (inactive).
As for `CC[C@@H]1C(=O)N(C)c2cnc(Nc3ccc(C(=O)N[C@H]4CC[C@H](N5CCN(CC6CC6)CC5)CC4)cc3OC)nc2N1C(C)C` [VOLASERTIB], the Kd (in test [5]; in test [6]; at Ephrin type-B receptor 3; in test [2]; in test [3]; in test [7]) was > 30 µM (inactive) throughout. Besides, in test [4], the Kd is > 30 µM (inactive).
Take `OCCn1cc(-c2cnc3nnn(Cc4ccc5ncccc5c4)c3n2)cn1` [PF-04217903]: the Kd (in test [6]; at Ephrin type-B receptor 3; in test [1]; in test [2]; in test [3]; in test [4]) was > 30 µM (inactive) throughout.
Regarding `CC[C@H](Nc1ncnc2[nH]cnc12)c1nc2cccc(F)c2c(=O)n1-c1ccccc1` [IDELALISIB], the Kd (in test [5]; in test [6]; at Ephrin type-B receptor 3; in test [2]; in test [3]; in test [7]) was > 30 µM (inactive) in each case. Further, the Kd in test [4] was > 30 µM (inactive).
Turning to `C1=C/COCc2cc(ccc2OCCN2CCCC2)Nc2nccc(n2)-c2cccc(c2)COC/1` [PACRITINIB], the Kd in test [5] was > 30 µM (inactive); in test [6] it was > 30 µM (inactive); on Ephrin type-B receptor 3, > 30 µM (inactive); in test [1] it was 0.052 µM (active); in test [2], > 30 µM (inactive); in test [7] it was 0.293 µM (active). Moreover, in test [4], the Kd was > 30 µM (inactive).
For `Cn1cc(-c2ccc(F)c(C(F)(F)F)c2)nc1C1CCN(c2ncnc3[nH]ncc23)CC1` [LY-2584702], the Kd (in test [5]; in test [6]; on Ephrin type-B receptor 3; in test [1]; in test [2]; in test [7]) was > 30 µM (inactive) throughout. In addition, the Kd in test [4] was > 30 µM (inactive).

Source of the values: ChEMBL document CHEMBL3991601, “The target landscape of clinical kinase drugs” (Science, 2017).
